From patent US20050119316A1, “Semicarbazide derivatives and the use thereof as antithrombotics” (Merch Patent GmbH, priority 2002, published 2005)

What was measured:
[1] = biological target: TF/FVIIa (Homo sapiens, UniProt P08709); experiment: Inhibition of TF/factor VIIa (Table 1, affinity to receptors); type: biochemical
Source text: The inhibition of factor VIIa by the compounds according to the invention and the measurement of the anticoagulant and antithrombotic activity can be determined by conventional in-vitro or in-vivo methods. A conventional method for the measurement of the inhibition of factor VIIa is described, for example, by H. F. Ronning et al. in Thrombosis Research 1996, 84, 73-81.

[2] = biological target: FXa (Homo sapiens, UniProt P00742); experiment: Inhibition of factor Xa (Table 1, affinity to receptors); type: biochemical
Source text: The inhibition of factor Xa by the compounds according to the invention and the measurement of the anticoagulant and antithrombotic activity can be determined by conventional in-vitro or in-vivo methods. A suitable method is described, for example, by J. Hauptmann et al. in Thrombosis and Haemostasis 1990, 63, 220-223.
The inhibition of factor Xa can be measured, for example, by the method of T. Hara et al. in Thromb. Haemostas. 1994, 71, 314-319.

Sequence of FXa (P00742 235-488 limits assumed): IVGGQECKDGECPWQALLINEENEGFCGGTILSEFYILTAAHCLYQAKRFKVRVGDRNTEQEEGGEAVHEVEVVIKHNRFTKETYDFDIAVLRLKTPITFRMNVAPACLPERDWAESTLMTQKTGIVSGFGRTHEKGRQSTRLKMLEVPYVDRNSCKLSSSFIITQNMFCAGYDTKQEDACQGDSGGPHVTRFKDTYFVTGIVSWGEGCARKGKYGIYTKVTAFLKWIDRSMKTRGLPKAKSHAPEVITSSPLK
Sequence of FXa (P00742 41-179 partner limits assumed): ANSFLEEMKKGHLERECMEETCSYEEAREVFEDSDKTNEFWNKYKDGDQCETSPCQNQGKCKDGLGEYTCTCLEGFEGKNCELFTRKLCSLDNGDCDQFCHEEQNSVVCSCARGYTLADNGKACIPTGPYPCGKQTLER
Sequence of TF/FVIIa (P08709 213-466 limits assumed): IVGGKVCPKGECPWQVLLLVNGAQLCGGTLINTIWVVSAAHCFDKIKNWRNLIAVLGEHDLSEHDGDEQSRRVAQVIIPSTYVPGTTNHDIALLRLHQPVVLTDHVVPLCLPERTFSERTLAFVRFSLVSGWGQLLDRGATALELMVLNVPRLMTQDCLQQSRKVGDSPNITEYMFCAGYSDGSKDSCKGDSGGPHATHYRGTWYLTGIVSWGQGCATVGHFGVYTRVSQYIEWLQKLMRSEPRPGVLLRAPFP
Sequence of TF/FVIIa (P08709 61-212 partner limits assumed): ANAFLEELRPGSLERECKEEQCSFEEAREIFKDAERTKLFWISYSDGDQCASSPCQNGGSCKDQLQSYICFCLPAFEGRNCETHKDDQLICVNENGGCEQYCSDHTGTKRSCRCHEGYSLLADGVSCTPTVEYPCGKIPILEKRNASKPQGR
Sequence of TF/FVIIa (P13726 33-295 partner): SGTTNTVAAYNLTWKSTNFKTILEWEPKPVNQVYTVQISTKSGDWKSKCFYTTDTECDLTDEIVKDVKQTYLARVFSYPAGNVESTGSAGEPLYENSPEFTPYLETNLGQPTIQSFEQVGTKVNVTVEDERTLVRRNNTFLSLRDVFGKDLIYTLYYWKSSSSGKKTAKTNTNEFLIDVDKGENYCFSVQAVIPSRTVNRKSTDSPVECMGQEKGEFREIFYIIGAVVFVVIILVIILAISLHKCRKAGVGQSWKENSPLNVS

| SMILES | IC50 [1] | IC50 [2] |
| --- | --- | --- |
| CS(=O)(=O)c1ccccc1-c1ccc(NC(=O)NN(c2ccccc2)c2cccc(C(N)=NO)c2)c(F)c1 [Compound 8, 1-(3-N-hydroxyamidinophenyl)-4-(3-fluoro-2′-methylsulfonylbiphenyl-4-yl)-1-phenylsemicarbazide] | 8.8 µM | 3.8 µM |
| CS(=O)(=O)c1ccccc1-c1ccc(NC(=O)NN(c2ccccc2)c2cccc(C(=N)N)c2)c(F)c1 [Compound 9, 1-(3-amidinophenyl)-4-(3-fluoro-2′-methylsulfonylbiphenyl-4-yl)-1-phenylsemicarbazide] | 0.012 µM | 0.028 µM |
| CS(=O)(=O)c1ccccc1-c1ccc(NC(=O)NN(c2ccccc2)c2cccc(CN)c2)c(F)c1 [Compound 10, 1-(3-aminomethylphenyl)-4-(3-fluoro-2′-methylsulfonylbiphenyl-4-yl)-1-phenylsemicarbazide] | 4.2 µM | 2.4 µM |
